Data as given in patent US8618300B2, “Indolizine inhibitors of leukotriene production” (Boehringer Ingelheim International GmbH, priority 2008, dated 2013).

How the values were obtained:
[1] = target: T1, recombinant human FLAP protein (Homo sapiens, UniProt P20292); assay: FLAP binding assay, Scintillation Proximity Assay, displacement of [125I]L-691,831; settings: read-out: hFLAP binding IC50
T1 construct: made in house; host or cells: Sf9 insect cells (100,000 x g membrane pellet)
T1 sequence (P20292 1-161): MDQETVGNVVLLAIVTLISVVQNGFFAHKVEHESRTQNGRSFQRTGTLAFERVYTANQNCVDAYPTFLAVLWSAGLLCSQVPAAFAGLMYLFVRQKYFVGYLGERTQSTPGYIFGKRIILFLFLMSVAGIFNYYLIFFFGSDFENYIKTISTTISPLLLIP
Method: Compounds are assessed for the ability to bind to FLAP in a binding assay that measures compound-specific displacement of an iodinated (^1251) FLAP inhibitor via a Scintillation Proximity Assay format (adapted from S. Charleson et al., Mol. Pharmacol., 1992, 41, 873-879).
Cell pellets produced from sf9 insect cells expressing recombinant human FLAP protein are resuspended in buffer A [15 mM Tris-HCl (pH 7.5), 2 mM MgCl2, 0.3 mM EDTA, 1 mM PMSF]. The cells are lysed with a Dounce homogenizer and the material is centrifuged at 10,000×g for 10 minutes. The supernatant is then collected and centrifuged at 100,000×g for 60 minutes. To prepare membrane protein for an assay, an aliquot of the 100,000×g pellet is resuspended in 1 ml of buffer A, Dounce homogenized, and finally subjected to polytron mixing (30 seconds). Membrane protein (25 μl, 5 μg) is mixed with WGA SPA beads (Amersham) and stirred for 1 h. To an assay plate (Perkin Elmer FlexiPlate) is added 25 μl of test compound prepared in Binding buffer [100 mM Tris (pH 7.5), 140 mM NaCl, 5% glycerol, 2 mM EDTA, 0.5 mM TCEP, 0.05% Tween 20], 25 μl of [^125I]L-691,831 (an iodinated analog of MK-591, Charleson et al. Mol. Pharmacol., 41, 873-879, 1992) and finally 50 μl of the bead/protein mixture. (final concentrations: beads, 200 μg/well; protein, 5 μg/well; [^125I] probe, 0 08 nM/well (17 nCi/well). The plates are shaken for 2 h before reading on a Microbeta plate reader. Non-specific binding is determined by the addition of 10 μM cold L-691,831 compound.

[2] = tested on: biomarkers for myocardial infarction risk; settings: clinical trials; cited from earlier work
[3] = tested on: human glomerulonephritis; settings: clinical trial; cited from earlier work
[4] = tested on: apoE/LDL-R double knockout mice; settings: oral dosing, high-fat diet from 2 months of age to 6 months; cited from earlier work
[5] = tested on: ApoE^−/−×CD4 dnTβRII mice; settings: infusion, treated for four weeks after 12 weeks plaque growth; cited from earlier work

**Q.** For `Cc1cccc(COc2ccn3c(C(=O)c4ccc(Cl)cc4)c(CC(C)(C)C(=O)O)c(C(=O)C(C)(C)C)c3c2)n1` [3-{3-[(4-chlorophenyl)carbonyl]-1-(2,2-dimethylpropanoyl)-7-[(6-methylpyridin-2-yl)methoxy]indolizin-2-yl}-2,2-dimethylpropanoic acid], which IC50 [1] is on record?
**A.** 0.017 µM

**Q.** For `CC(C)(C)CC(=O)c1c(CC(C)(C)C(=O)O)c(C(=O)c2ccc(Cl)cc2)n2ccc(OCc3ccc4ccccc4n3)cc12` [3-{3-[(4-chlorophenyl)carbonyl]-1-(3,3-dimethylbutanoyl)-7-(quinolin-2-ylmethoxy)indolizin-2-yl}-2,2-dimethylpropanoic acid], which IC50 [1] is on record?
**A.** 0.085 µM

**Q.** For `COc1ccc(C(=O)c2c(CC(C)(C)C(N)=O)c(C(=O)C(C)(C)C)c3cc(OCc4cccc(N)n4)ccn23)cc1` [3-{7-[(6-aminopyridin-2-yl)methoxy]-1-(2,2-dimethylpropanoyl)-3-(4-methoxybenzoyl)indolizin-2-yl}-2,2-dimethylpropanamide], which IC50 [1] is on record?
**A.** 0.002 µM

**Q.** For `COc1ccc(C(=O)c2c(C[C@@H](C(=O)O)C(C)C)c(C(=O)C(C)(C)C)c3cc(OCc4csc(C)n4)ccn23)cc1` [(2R)-2-({1-(2,2-dimethylpropanoyl)-3-[(4-methoxyphenyl)carbonyl]-7-[(2-methyl-1,3-thiazol-4-yl)methoxy]indolizin-2-yl}methyl)-3-methylbutanoic acid], which IC50 [1] is on record?
**A.** 0.007 µM

**Q.** For `O=C(O)[C@@H](c1ccc(OCc2ccc3ccccc3n2)cc1)C1CCCC1` [DG-031], which “effect on biomarkers for myocardial infarction risk” value [2] is on record?
**A.** dose-dependent suppression of biomarkers

**Q.** With `CC(C)(C)Sc1c(CC(C)(C)C(=O)O)n(Cc2ccc(Cl)cc2)c2ccc(OCc3ccc4ccccc4n3)cc12` [MK-591] as the compound, how does the effect on proteinuria [3] read?
**A.** useful for reducing proteinuria

**Q.** Which “decrease in plaque coverage in the aorta” value [4] does the source give for `CC(C)c1ccc2c(c1)c(SC(C)(C)C)c(CC(C)(C)C(=O)O)n2Cc1ccc(Cl)cc1` [MK-886] here?
**A.** 56%

**Q.** What about the “decrease in plaque coverage in the aortic root” value [4] of the same compound?
**A.** 43%

**Q.** And the “decrease in plaque area in the aortic root” value [5]?
**A.** ~40%
